In data set [1] the test system is Pseudomonas aeruginosa (ATCC 27853). As to the kind of experiment: Growth inhibition test in broth medium (MIC). In kind it is cell-based. The conditions noted are these: 18 hrs at 37° C., LB medium.
Procedure: (§5) The following strains were used for the antibacterial activity tests: Escherichia coli (ATCC 25922 and ATCC 35218), Staphylococcus aureus (ATCC 25923), Enterococcus faecalis (ATCC 29212), Bacillus megaterium and Pseudomonas aeruginosa (ATCC 27853).
(§6) For each strain, a standard inoculum of 10^5 to 10^6 bacteria/mL (exponential growth phase) was prepared. To this end, a colony isolated on LB agar previously inoculated with one of the strains was cultured in 10 mL of LB broth medium. Liquid cultures were then incubated for 2 to 3 hrs at 37° C. with shaking for the bacteria to reach exponential growth phase. Each bacterial suspension was diluted in LB medium to an OD630nm of 0.01 which corresponds to a concentration of 10^5-10^6 cfu/mL (cfu: colony forming unit).
(§7) The minimum inhibitory concentration (MIC) of each peptide was determined by a test of growth inhibition in broth medium. […] The test was performed in a sterile 96-well microtiter plate. A series of increasing concentrations of each peptide (1 to 400 μM) was first prepared in sterile MilliQ water containing 5% dimethyl sulphoxide (DMSO). […] 50 μL of peptide were aliquoted into each well with 50 μL of bacterial suspension (10^5-10^6 cfu/mL). The microtiter plate was then incubated for 18 hrs at 37° C. with shaking. Bacterial growth was determined by measuring OD at 630 nm (turbidity) on a plate reader. […]
Data set [2] can be described thus: Hemolytic test. In kind it is cell-based. To be noted: erythrocytes (washed red blood cells), pH 7.4; human erythrocytes, 1 hr at 37° C., concentration inducing hemolysis of 50% of the cells; read-out: LC50 erythrocytes. How it is done: (§1) The hemolytic activity of the antimicrobial peptides was assessed using human erythrocytes from healthy donors. Red blood cell hemolysis is manifested by the release into the reaction medium of hemoglobin, the concentration of which is determined spectrophotometrically at 450 nm.
(§2) Red blood cells were separated from plasma and white blood cells by centrifugation of human blood (900 g, 10 min). The pellet containing red blood cells was washed three times with PBS buffer, pH 7.4. After counting on a Malassez cell, a stock solution of 2.10^7 red blood cells/mL was prepared in the same buffer. A series of concentrations of the peptides to be tested was prepared (1 to 200 μM).
(§3) The test was carried out as follows: 100 μL of the different peptide concentrations were added to 100 μL of the red blood cell suspension. After 1 hr of incubation at 37° C. followed by centrifugation (12,000 g, 15 sec), absorbance of the supernatant was measured at 450 nm. The negative control for this test (0% hemolysis) contained 100 μL of PBS buffer in place of the peptide solution. The positive control (100% hemolysis) contained 100 μL of 0.1% Triton in place of the peptide solution.
(§4) The LC50 value obtained is the mean of three experiments carried out in triplicate and corresponds to the peptide concentration inducing hemolysis of 50% of the cells.

Data set [3] has as its system human erythrocytes. The experiment in a line: Hemolytic test. In kind it is cell-based. The conditions noted are these: relative to temporin-SHa. How it is done:
as §1, §2, §3, §4

For data set [4], the target named is Leishmania infantum promastigotes. In kind it is cell-based. The conditions noted are these: 72 hours at 26° C., luciferase luminescence (FIG. 2 B), read-out: IC50, promastigote form. The protocol: The antiparasitic activity of the peptides was evaluated on two forms of the parasite Leishmania infantum, the promastigote form and the amastigote form.
The tests of anti-Leishmania activity were carried out with a Leishmania infantum cell line αNEO-αLUC This cell line was obtained by transforming Leishmania infantum strain MHOM/MA/67/ITMAP-263 with the vector pGM αNEO-αLUC containing the luciferase reporter gene (LUC) and the neomycin resistance gene (NEO) such as described in Roy et al. (2000). It was maintained in culture in its two forms, promastigote and amastigote.
Leishmania infantum promastigotes were maintained at 26° C. by one or two weekly passages depending on the number of parasites in the inoculum, in SDM 79 medium supplemented with 10 to 20% decomplemented foetal calf serum and […] porcine haemin and in the presence of 100 U/mL penicillin and 100 μg/mL streptomycin (Brun & Shonenberger, 1979). […] Cell densities were determined by flow cytometry in the presence of propidium iodide on a Facscan cytometer (Excalibur, Becton-Dickinson, Ivry, France).
Emitted luminescence was measured with a luminescence plate reader (Victor, PerkinElmer). […]
The percentage growth was calculated according to the following formula: % growth=[(L mean−bgd)peptide×100]/(L mean−bgd)control […]

Data set [5] deals with Escherichia coli (ATCC 25922). To be noted: 18 hrs at 37° C., LB medium.
Procedure: as §5, §6, §7
Data set [6] has as its system Escherichia coli (ATCC 35218). The conditions noted are these: 18 hrs at 37° C., LB medium.
Procedure: as §5, §6, §7
For data set [7], the system named is Escherichia coli ML-35p.
Procedure: as §6
(§8) The minimum inhibitory concentration (MIC) of each peptide was determined by a test of growth inhibition in broth medium. […] The test was performed in a sterile 96-well microtiter plate. A series of increasing concentrations of each peptide (1 to 400 μM) was first prepared in sterile MilliQ water containing 5% dimethyl sulphoxide (DMSO). […] 50 μL of peptide were aliquoted into each well with 50 μL of bacterial suspension (10^5-10^6 cfu/mL). The microtiter plate was then incubated for 18 hrs at 37° C. with shaking. Bacterial growth was determined by measuring OD at 630 nm (turbidity) on a plate reader. Tests were carried out in triplicate for each peptide concentration.
The growth inhibition negative control was obtained by replacing the solution containing the peptide with 50 μL of sterile MilliQ water containing 5% DMSO. […]
In data set [8] the test system is Staphylococcus aureus (ATCC 25923). To be noted: 18 hrs at 37° C., LB medium.
Procedure: as §5, §6, §7
Data set [9] concerns Enterococcus faecalis (ATCC 29212). To be noted: 18 hrs at 37° C., LB medium.
Procedure: as §5, §6, §7
In data set [10] the test system is Bacillus megaterium. To be noted: 18 hrs at 37° C., LB medium.
Procedure: as §5, §6, §7
Data set [11] concerns Candida albicans (ATCC 90028). To be noted: YPD medium, 30° C.
Procedure: as §8
(§9) These strains were first grown on YPD agar for a minimum of 48 hrs. Yeast suspensions were then prepared, exactly as for bacteria, and adjusted to 10^5-10^6 cfu/mL in YPD broth medium.
(§10) The antifungal activity test corresponds to the growth inhibition test in broth medium used for the bacteria (see above) in which LB medium was replaced by YPD medium. Fungal strains were incubated at 30° C.
Data set [12] deals with Saccharomyces cerevisiae. The conditions noted are these: YPD medium, 30° C.
Procedure: as §8, §9, §10
The test system of data set [13] is human monocyte cell line THP-1. The conditions noted are these: THP-1, 72 hrs, MTT test (FIG. 3), at antimicrobial concentrations. A general note: Tetrazolium dyes change colour on reduction, which living cells bring about.
Procedure: The cytotoxic activity of the antimicrobial peptides was determined on a human monocyte cell line THP-1. Cells were cultured in RPMI medium (10% FCS, 100 U/mL penicillin, 100 μg/mL streptomycin) until reaching exponential growth phase. After counting in a Thoma counting chamber, cell density was adjusted to 6.25×10^5 cells/mL in RPMI 1640 medium. Five-fold concentrated solutions of antimicrobial peptides were prepared in this RPMI medium (300 to 4.7 μM).
Monocytes were aliquoted at 80 μL of cell suspension per well (corresponding to 5×10^4 monocytes/well or 5×10^5 cells/mL final) and mixed with 20 μL of peptide solution (60 to 0.94 μM final concentration). Negative and positive controls were carried out according to the same protocol as for the tests of anti-Leishmania activity. Experiments were done in triplicate for each peptide concentration. Cells were incubated at 37° C., in a 5% CO2 atmosphere for 72 hrs.
After 72 hours, the number of viable THP-1 cells was calculated indirectly by the MTT test (Mosmann, 1983). […] Blue formazan can be detected spectrophotometrically at 570 nm.
A 10 mg/mL MTT solution in PBS buffer (pH 7.4), filtered on a 0.45 μm filter, was aliquoted at 10 μL per well. Plates were then incubated for 4 hrs at 37° C. […] The OD at 570 nm of each well was then measured (Victor plate reader, PerkinElmer) to calculate the IC50.
Data set [14] has as its system Gram-negative strains. The conditions noted are these: summary in text for all Gram-negative strains tested.
Procedure: as §5, §6, §7
Data set [15] has as its system Candida parapsilosis (ATCC 22019). The experiment in a line: Antifungal growth inhibition test in YPD broth (MIC). In kind it is cell-based. The conditions noted are these: YPD medium, 30° C. How it is done:
Fungal strains were incubated at 30° C.

pIC50: −log10 of the molar value. “Also recorded” adds a separate entry of the source. Ends that are not written are not given here.

In general, MIC refers to the lowest concentration that inhibits growth of the organism. A lower MIC goes with a more susceptible organism. The pIC50 is −log10 of the IC50, conventionally taken in molar units. As to FLKGIVGMLGKLF-NH2 [[K^3]temporin-SHa], the MIC in [1] amounted to 3 µM; in data set [5] it was 3 µM; in data set [6], 3 µM; in data set [7], 3 µM; in data set [8], 3 µM; in data set [9] it was 10 µM. In addition, the MIC in data set [10] was found to be 1.5 µM; in data set [11], 12.5 µM; in data set [12], 6.25 µM. In addition, in data set [2], the HC50 at 1 hr came out at 50 µM. Moreover, in data set [3], the “Change in hemolytic activity as compared with temporin-SHa” value was “twofold decrease; also recorded: twofold reduction”. In addition, the pIC50 in [4] was ~5.00. In [13], the “Cytotoxic effect on monocytes” value is “not cytotoxic”. Also, the “MIC, all Gram-negative strains tested” value in data set [14] stood at 3 µM.

“FLSGIVGMLGKLF-NH2 [temporin-SHa, F-L-S-G-I-V-G-M-L-G-K-L-F]”: the MIC in data set [1] was 31.25 µM; in [15], 31.25 µM; in [5], 10 µM; in data set [6], 10 µM; in data set [7], 6.25 µM; in data set [8] it was 3 µM. The MIC was 10 µM in [9], 2.5 µM in data set [10], 15 µM in [11] and 7.9 µM in data set [12]. The HC50 at 1 hr in data set [2] was 25 µM. The pIC50 in [4] was ~4.70. Further, the “Cytotoxic effect on monocytes” value in data set [13] is given as “not cytotoxic”.

The values are drawn from patent publication US9522942B2, “Analogs of temporin-SHa and uses thereof” (UNIVERSITE PIERRE ET MARIE CURIE (PARIS 6), priority 2009, dated 2016).
